Experimental data: article PMC5513037, “Examining the influence of specificity ligands and ATP-competitive ligands on the overall effectiveness of bivalent kinase inhibitors” (Proteome Science, 2017)
pIC50: −log10 of the molar value.

Key:
Experiment in all cases: KAM-matrix competition in K562 lysate;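 on 0.001 uM KAM: median log10 fold change of treatment over DMSO control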;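 on 0.01 uM KAM: median log10 fold change of treatment over DMSO control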;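 on 0.1 uM KAM: median log10 fold change of treatment over DMSO control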;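 on 1 uM KAM: median log10 fold change of treatment over DMSO control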;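 on 10 uM KAM: median log10 fold change of treatment over DMSO control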
Type in all cases: binding
ACVR1 = biological target: T1, ACVR1 (Homo sapiens, UniProt Q04771)
T1 construct: endogenous in cells; host or cells: K562
T1 sequence (Q04771 21-509): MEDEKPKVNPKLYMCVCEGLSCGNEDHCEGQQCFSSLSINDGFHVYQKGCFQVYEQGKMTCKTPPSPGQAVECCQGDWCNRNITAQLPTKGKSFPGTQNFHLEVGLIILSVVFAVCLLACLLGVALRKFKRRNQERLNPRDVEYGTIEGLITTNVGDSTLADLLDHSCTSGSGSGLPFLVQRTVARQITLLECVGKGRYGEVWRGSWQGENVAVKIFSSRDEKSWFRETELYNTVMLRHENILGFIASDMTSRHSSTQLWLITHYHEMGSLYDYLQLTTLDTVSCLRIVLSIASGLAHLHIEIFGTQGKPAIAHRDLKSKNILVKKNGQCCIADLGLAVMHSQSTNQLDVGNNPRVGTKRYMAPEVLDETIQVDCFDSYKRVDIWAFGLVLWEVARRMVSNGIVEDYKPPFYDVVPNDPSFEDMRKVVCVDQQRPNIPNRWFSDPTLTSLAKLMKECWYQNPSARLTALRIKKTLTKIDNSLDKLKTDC
Experimental: (§1) Supplement 12953_2017_125_MOESM1_ESM.zip/MS_Supp Info.xlsx, sheet "KAM" | column: 10 uM KAM; 1 uM KAM; 0.1 uM KAM; 0.01 uM KAM; 0.001 uM KAM; RB50

BRD2 = biological target: T2, BRD2 (Homo sapiens, UniProt P25440)
T2 construct: endogenous in cells; host or cells: K562
T2 sequence (P25440 whole entry): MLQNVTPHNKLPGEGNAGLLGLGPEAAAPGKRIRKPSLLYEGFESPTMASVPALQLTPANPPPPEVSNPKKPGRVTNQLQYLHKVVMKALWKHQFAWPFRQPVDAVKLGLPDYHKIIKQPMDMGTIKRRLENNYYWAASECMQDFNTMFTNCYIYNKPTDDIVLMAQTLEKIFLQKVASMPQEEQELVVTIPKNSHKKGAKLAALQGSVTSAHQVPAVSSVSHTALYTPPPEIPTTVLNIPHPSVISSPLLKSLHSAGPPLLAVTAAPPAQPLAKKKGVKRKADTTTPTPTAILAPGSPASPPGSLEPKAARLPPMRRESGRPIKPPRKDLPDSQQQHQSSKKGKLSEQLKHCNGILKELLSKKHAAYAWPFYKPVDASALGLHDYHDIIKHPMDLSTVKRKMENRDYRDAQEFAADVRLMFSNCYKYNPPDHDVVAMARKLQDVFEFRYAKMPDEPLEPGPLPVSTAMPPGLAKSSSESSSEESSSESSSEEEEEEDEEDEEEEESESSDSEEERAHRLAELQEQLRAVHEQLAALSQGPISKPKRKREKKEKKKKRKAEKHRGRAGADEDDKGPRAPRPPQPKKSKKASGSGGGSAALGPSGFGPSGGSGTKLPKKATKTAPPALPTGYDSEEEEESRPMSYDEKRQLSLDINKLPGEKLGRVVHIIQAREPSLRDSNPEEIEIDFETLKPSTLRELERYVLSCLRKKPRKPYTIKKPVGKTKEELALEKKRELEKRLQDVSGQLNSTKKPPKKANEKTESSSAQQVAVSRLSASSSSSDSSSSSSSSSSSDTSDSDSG
Experimental: as §1

BTK = biological target: T3, BTK (Homo sapiens, UniProt Q06187)
T3 construct: endogenous in cells; host or cells: K562
T3 sequence (Q06187 whole entry): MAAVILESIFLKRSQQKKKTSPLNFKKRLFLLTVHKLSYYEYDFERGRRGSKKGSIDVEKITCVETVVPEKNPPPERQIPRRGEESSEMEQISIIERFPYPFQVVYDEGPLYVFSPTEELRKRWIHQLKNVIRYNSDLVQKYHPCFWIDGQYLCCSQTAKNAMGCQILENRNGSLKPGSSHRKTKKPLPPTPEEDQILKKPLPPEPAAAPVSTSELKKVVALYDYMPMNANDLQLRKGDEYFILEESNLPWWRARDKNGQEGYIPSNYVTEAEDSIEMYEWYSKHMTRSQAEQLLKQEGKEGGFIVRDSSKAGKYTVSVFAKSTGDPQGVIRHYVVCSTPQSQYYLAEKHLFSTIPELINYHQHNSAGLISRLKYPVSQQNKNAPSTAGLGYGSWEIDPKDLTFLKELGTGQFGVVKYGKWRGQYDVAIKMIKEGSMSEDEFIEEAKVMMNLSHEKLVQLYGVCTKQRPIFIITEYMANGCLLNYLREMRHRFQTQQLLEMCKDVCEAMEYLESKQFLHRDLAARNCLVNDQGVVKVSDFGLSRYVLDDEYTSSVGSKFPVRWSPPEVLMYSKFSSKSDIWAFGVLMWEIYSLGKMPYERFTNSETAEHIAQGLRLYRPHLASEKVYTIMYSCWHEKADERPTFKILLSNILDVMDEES
Experimental: as §1

MAP4K3 = biological target: T4, MAP4K3 (Homo sapiens, UniProt Q8IVH8)
T4 construct: endogenous in cells; host or cells: K562
T4 sequence (Q8IVH8 1-894): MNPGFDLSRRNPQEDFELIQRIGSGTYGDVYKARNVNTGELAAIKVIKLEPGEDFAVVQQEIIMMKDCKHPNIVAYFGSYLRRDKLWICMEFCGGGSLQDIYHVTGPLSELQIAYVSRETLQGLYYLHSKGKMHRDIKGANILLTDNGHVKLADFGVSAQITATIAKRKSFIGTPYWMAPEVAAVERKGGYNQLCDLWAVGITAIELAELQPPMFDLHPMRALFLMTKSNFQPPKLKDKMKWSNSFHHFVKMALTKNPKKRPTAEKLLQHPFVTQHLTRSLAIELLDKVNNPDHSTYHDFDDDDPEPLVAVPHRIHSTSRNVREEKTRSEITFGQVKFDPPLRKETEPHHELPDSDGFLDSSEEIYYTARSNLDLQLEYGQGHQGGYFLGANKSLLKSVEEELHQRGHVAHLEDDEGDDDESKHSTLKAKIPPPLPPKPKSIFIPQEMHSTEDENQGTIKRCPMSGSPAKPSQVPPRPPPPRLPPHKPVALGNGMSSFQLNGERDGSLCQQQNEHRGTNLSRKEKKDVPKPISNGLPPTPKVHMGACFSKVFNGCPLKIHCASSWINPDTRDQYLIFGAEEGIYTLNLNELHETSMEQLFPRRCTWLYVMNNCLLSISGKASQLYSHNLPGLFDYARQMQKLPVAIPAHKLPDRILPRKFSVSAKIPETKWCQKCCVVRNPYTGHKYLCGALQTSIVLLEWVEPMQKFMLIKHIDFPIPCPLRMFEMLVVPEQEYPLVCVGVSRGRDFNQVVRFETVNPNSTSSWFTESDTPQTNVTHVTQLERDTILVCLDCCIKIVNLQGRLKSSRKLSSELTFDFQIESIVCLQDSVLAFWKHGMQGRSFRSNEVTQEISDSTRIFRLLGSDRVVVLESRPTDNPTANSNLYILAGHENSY
Experimental: as §1

MARK3 = biological target: T5, MARK3 (Homo sapiens, UniProt P27448)
T5 construct: endogenous in cells; host or cells: K562
T5 sequence (P27448 whole entry): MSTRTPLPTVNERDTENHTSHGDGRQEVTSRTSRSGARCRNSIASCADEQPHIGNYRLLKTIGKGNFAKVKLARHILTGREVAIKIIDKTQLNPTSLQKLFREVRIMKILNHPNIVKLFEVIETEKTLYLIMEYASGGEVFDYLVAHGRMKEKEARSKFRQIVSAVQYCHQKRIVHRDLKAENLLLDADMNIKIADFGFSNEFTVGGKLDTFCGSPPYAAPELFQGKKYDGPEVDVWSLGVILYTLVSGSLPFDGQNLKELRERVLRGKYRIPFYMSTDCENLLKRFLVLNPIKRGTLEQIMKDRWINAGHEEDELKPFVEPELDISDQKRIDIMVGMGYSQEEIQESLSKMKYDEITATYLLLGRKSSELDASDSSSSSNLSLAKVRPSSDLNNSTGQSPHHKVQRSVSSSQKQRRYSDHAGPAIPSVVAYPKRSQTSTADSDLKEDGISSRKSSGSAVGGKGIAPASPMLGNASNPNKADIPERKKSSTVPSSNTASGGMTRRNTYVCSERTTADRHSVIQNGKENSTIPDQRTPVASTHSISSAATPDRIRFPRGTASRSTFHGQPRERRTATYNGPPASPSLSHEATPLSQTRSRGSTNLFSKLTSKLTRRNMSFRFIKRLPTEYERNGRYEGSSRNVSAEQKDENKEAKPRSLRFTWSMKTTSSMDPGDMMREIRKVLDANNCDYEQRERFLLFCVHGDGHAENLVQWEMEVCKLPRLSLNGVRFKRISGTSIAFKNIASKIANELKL
Experimental: as §1

NEK2 = biological target: T6, NEK2 (Homo sapiens, UniProt P51955);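 on 0.001 uM KAM: median log10 fold change of treatment over DMSO control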;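 on 0.01 uM KAM: median log10 fold change of treatment over DMSO control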;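 on 0.1 uM KAM: median log10 fold change of treatment over DMSO control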;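 on 1 uM KAM: median log10 fold change of treatment over DMSO control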;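 on 10 uM KAM: median log10 fold change of treatment over DMSO control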
T6 construct: endogenous in cells; host or cells: K562
T6 sequence (P51955 1-445): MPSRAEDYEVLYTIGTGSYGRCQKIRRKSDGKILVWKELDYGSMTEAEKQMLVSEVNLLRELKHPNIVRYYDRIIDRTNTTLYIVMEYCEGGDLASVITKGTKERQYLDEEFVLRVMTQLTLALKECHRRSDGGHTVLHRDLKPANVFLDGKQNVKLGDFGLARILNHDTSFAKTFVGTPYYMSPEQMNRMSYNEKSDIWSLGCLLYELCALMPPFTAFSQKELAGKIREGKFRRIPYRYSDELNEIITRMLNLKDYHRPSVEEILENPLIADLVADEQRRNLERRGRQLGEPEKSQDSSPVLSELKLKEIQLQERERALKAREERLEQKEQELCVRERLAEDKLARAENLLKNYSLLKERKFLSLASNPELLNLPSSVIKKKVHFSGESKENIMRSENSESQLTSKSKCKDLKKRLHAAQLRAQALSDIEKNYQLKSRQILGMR
Experimental: as §1

RPS6KB1 = biological target: T7, RPS6KB1 (Homo sapiens, UniProt P23443);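 on 0.001 uM KAM: median log10 fold change of treatment over DMSO control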;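 on 0.01 uM KAM: median log10 fold change of treatment over DMSO control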;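 on 0.1 uM KAM: median log10 fold change of treatment over DMSO control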;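 on 1 uM KAM: median log10 fold change of treatment over DMSO control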;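 on 10 uM KAM: median log10 fold change of treatment over DMSO control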
T7 construct: endogenous in cells; host or cells: K562
T7 sequence (P23443 whole entry): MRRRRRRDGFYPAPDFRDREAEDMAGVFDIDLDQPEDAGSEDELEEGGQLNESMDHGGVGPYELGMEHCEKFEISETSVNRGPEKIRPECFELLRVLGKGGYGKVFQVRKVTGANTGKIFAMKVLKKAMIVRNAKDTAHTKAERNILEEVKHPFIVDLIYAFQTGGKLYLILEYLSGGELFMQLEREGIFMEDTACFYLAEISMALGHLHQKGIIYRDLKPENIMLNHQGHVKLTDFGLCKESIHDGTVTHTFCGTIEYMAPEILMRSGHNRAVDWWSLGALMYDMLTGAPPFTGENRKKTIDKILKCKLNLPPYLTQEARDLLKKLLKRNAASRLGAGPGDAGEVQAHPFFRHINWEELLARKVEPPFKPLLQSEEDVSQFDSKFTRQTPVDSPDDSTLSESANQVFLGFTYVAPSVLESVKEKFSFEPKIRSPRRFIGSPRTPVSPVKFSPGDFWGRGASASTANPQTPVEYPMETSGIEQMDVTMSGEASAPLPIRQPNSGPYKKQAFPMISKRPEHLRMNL
Experimental: as §1

[1] = read-out: RB50 (the source's name)
[2] = KAM 0.001-10 uM, read-out: RB50 (the source's name)

## N#CCc1ccc(Nc2nc(NCCCN)cc(Nc3cc(C4CC4)[nH]n3)n2)cc1 [KAM]
ACVR1; 0.001 uM KAM
  median Log10 fold change: 0.003413
ACVR1; 0.01 uM KAM
  median Log10 fold change: -0.1656
ACVR1; 0.1 uM KAM
  median Log10 fold change: -0.6449
ACVR1; 1 uM KAM
  median Log10 fold change: -0.6498
ACVR1; 10 uM KAM
  median Log10 fold change: -0.7414
ACVR1; [1]
  pIC50: 7.57
BRD2; 0.001 uM KAM
  median Log10 fold change: -0.02696
BRD2; 0.01 uM KAM
  median Log10 fold change: -0.0008346
BRD2; 0.1 uM KAM
  median Log10 fold change: -0.172
BRD2; 1 uM KAM
  median Log10 fold change: -0.286
BRD2; 10 uM KAM
  median Log10 fold change: -0.3099
BRD2; [1]
  pIC50: 5.72
BTK; 0.001 uM KAM
  median Log10 fold change: -0.05218
BTK; 0.01 uM KAM
  median Log10 fold change: -0.04172
BTK; 0.1 uM KAM
  median Log10 fold change: -0.1708
BTK; 1 uM KAM
  median Log10 fold change: -0.3888
BTK; 10 uM KAM
  median Log10 fold change: -0.5091
BTK; [1]
  pIC50: 6.25
MAP4K3; 0.001 uM KAM
  median Log10 fold change: -0.00532
MAP4K3; 0.01 uM KAM
  median Log10 fold change: -0.01342
MAP4K3; 0.1 uM KAM
  median Log10 fold change: -0.1612
MAP4K3; 1 uM KAM
  median Log10 fold change: -0.436
MAP4K3; 10 uM KAM
  median Log10 fold change: -0.5629
MAP4K3; [1]
  pIC50: 6.33
MARK3; 0.001 uM KAM
  median Log10 fold change: -0.0002127
MARK3; 0.01 uM KAM
  median Log10 fold change: -0.02099
MARK3; 0.1 uM KAM
  median Log10 fold change: -0.2742
MARK3; 1 uM KAM
  median Log10 fold change: -0.5652
MARK3; 10 uM KAM
  median Log10 fold change: -0.6472
MARK3; [1]
  pIC50: 6.80
NEK2; [2]
  pIC50: 5.23
NEK2; relative to 0 uM KAM = 0
  0.001 uM KAM: 0.005896
  0.01 uM KAM: 0.02457
  0.1 uM KAM: -0.07556
  1 uM KAM: -0.1875
  10 uM KAM: -0.3106
RPS6KB1; [2]
  pIC50: < 5.00
RPS6KB1; relative to 0 uM KAM = 0
  0.001 uM KAM: 0.05992
  0.01 uM KAM: 0.07406
  0.1 uM KAM: 0.2008
  1 uM KAM: 0.1222
  10 uM KAM: 0.1654
